From patent US8871681B2, “Herbicidal compositions comprising 4-amino-3-chloro-5-fluoro-6-(4-chloro-2-fluoro-3-methoxyphenyl) pyridine-2-carboxylic acid or a derivative thereof and certain sulfonylureas” (Dow AgroSciences LLC, priority 2012, dated 2014)
Where two headings read alike, the source gives them in different places.

System: LEFCH (Leptochloa chinensis, Chinese sprangletop)
Test: Postemergence foliar-applied weed control, direct seeded rice, greenhouse (Example I)
Assay type: in vivo, Leptochloa chinensis (L.) Nees
Conditions: for pest or weed control at 8.75 g/ha: 8.75 gae/ha; for pest or weed control at 4.38 g/ha: 4.38 gae/ha
Method in brief: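 Greenhouse-grown plants (14 h photoperiod, 29/26 °C day/night) at first to fourth true leaf stage sprayed overhead at 187 L/ha with Compound A (acid equivalent basis) alone or mixed with sulfonylurea ALS inhibitors (active ingredient basis). Final spray contained 1.25% v/v crop oil concentrate; controls received solvent blank.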

[1] = Dinebra chinensis, post-emergence, 480 h, 20 DAA, read-out: Visual Weed Control (%) Obs

COC(=O)c1ccccc1CS(=O)(=O)NC(=O)Nc1nc(OC)cc(OC)n1 [Bensulfuron-methyl, methyl 2-[[[[[(4,6-dimethoxy-2-pyrimidinyl)amino]carbonyl]amino]sulfonyl]methyl]benzoate, reference compound]
pest or weed control at 70 g/ha (Dinebra chinensis, post-emergence, 480 h, 20 DAA, 70 gai/ha, read-out: Visual Weed Control (%) Obs): 5%
pest or weed control at 17.5 g/ha (Dinebra chinensis, post-emergence, 504 h, 21 DAA, 17.5 gai/ha, read-out: Visual Weed Control (%) Obs): 10%
pest or weed control at 35 g/ha (Dinebra chinensis, post-emergence, 504 h, 21 DAA, 35 gai/ha, read-out: Visual Weed Control (%) Obs): 10%

COc1c(Cl)ccc(-c2nc(C(=O)OCc3ccccc3)c(Cl)c(N)c2F)c1F [Compound A Benzyl Ester]
Visual Weed Control Obs (22 DAA, 8 gae/ha): 0%
pest or weed control at 8.75 g/ha (Dinebra chinensis, post-emergence, 480 h, read-out: Visual Weed Control (%) Obs, 20 DAA): 20%
pest or weed control at 17.5 g/ha (Dinebra chinensis, post-emergence, 480 h, read-out: Visual Weed Control (%) Obs, 20 DAA, 17.5 gae/ha): 40%
pest or weed control at 4.38 g/ha (Dinebra chinensis, post-emergence, 504 h, read-out: Visual Weed Control (%) Obs, 21 DAA): 0%
pest or weed control at 8 g/ha (Dinebra chinensis, post-emergence, 504 h, read-out: Visual Weed Control (%) Obs, 21 DAA, 8 gae/ha): 20%
pest or weed control at 8 g/ha (Dinebra chinensis, post-emergence, 528 h, read-out: Visual Weed Control (%) Obs, 22 DAA, 8 gae/ha): 0%
pest or weed control at 16 g/ha (Dinebra chinensis, post-emergence, 528 h, read-out: Visual Weed Control (%) Obs, 22 DAA, 16 gae/ha): 20%
pest or weed control at 32 g/ha (Dinebra chinensis, post-emergence, 528 h, read-out: Visual Weed Control (%) Obs, 22 DAA, 32 gae/ha): 15%
pest or weed control at 8.75 g/ha (Dinebra chinensis, post-emergence, 576 h, read-out: Visual Weed Control (%) Obs, 24 DAA): 0%
pest or weed control at 17.5 g/ha (Dinebra chinensis, post-emergence, 576 h, read-out: Visual Weed Control (%) Obs, 24 DAA, 17.5 gae/ha): 10%

COc1c(Cl)ccc(-c2nc(C(=O)O)c(Cl)c(N)c2F)c1F [Compound A Acid, 4-amino-3-chloro-5-fluoro-6-(4-chloro-2-fluoro-3-methoxy-phenyl)pyridine-2-carboxylic acid]
pest or weed control at 4.38 g/ha [1]: 0%
pest or weed control at 5.3 g/ha (Dinebra chinensis, post-emergence, 480 h, 20 DAA, 5.3 gae/ha, read-out: Visual Weed Control (%) Obs): 0%
pest or weed control at 8.75 g/ha [1]: 0%
pest or weed control at 10.6 g/ha (Dinebra chinensis, post-emergence, 480 h, 20 DAA, 10.6 gae/ha, read-out: Visual Weed Control (%) Obs): 10%
pest or weed control at 17.5 g/ha (Dinebra chinensis, post-emergence, 480 h, 20 DAA, 17.5 gae/ha, read-out: Visual Weed Control (%) Obs): 10%
pest or weed control at 19.4 g/ha (Dinebra chinensis, post-emergence, 480 h, 20 DAA, 19.4 gae/ha, read-out: Visual Weed Control (%) Obs): 5%
pest or weed control at 21.2 g/ha (Dinebra chinensis, post-emergence, 480 h, 20 DAA, 21.2 gae/ha, read-out: Visual Weed Control (%) Obs): 15%
pest or weed control at 8.75 g/ha (Dinebra chinensis, post-emergence, 504 h, 21 DAA, read-out: Visual Weed Control (%) Obs): 40%
pest or weed control at 17.5 g/ha (Dinebra chinensis, post-emergence, 504 h, 21 DAA, 17.5 gae/ha, read-out: Visual Weed Control (%) Obs): 30%

COCC(=O)OC(c1ncccc1S(=O)(=O)NC(=O)Nc1nc(OC)cc(OC)n1)C(C)F (centres unmarked) [Flucetosulfuron, 1-[3-[[[[(4,6-dimethoxy-2-pyrimidinyl)amino]carbonyl]amino]sulfonyl]-2-pyridinyl]-2-fluoropropyl 2-methoxyacetate]
pest or weed control at 0.05 g/ha (Dinebra chinensis, post-emergence, 504 h, 21 DAA, 0.05 gai/ha, read-out: Visual Weed Control (%) Obs): 0%
pest or weed control at 0.1 g/ha (Dinebra chinensis, post-emergence, 504 h, 21 DAA, 0.1 gai/ha, read-out: Visual Weed Control (%) Obs): 0%
pest or weed control at 1.7 g/ha (Dinebra chinensis, post-emergence, 528 h, 22 DAA, 1.7 gai/ha, read-out: Visual Weed Control (%) Obs): 0%
pest or weed control at 5 g/ha (Dinebra chinensis, post-emergence, 528 h, 22 DAA, 5 gai/ha, read-out: Visual Weed Control (%) Obs): 0%
